Values quoted from earlier work as cited in patent publication US5993850A, “Preparation of multivesicular liposomes for controlled release of encapsulated biologically active substances” (priority 1994, dated 1999).

Tested on: strains of both gram negative and gram positive bacteria
Conditions: background statement; cited from earlier work

Compound: NCC[C@H](O)C(=O)N[C@@H]1C[C@H](N)[C@@H](O[C@H]2O[C@H](CN)[C@@H](O)[C@H](O)[C@H]2O)[C@H](O)[C@H]1O[C@H]1O[C@H](CO)[C@@H](O)[C@H](N)[C@H]1O [amikacin]
- antibacterial activity: clinically significant activity against strains of both gram negative and gram positive bacteria
